The numbers were not newly measured in patent US20250049738A1, “METHOD OF TREATMENT AND SELECTION OF PATIENTS BENEFITING FROM AGOMELATINE BASED ON EEG MEASUREMENTS” (Alto Neuroscience, Inc., priority 2023, published 2025), which cites them from elsewhere.

Series [1] has as its system circadian rhythm. Conditions: in vivo; cited from earlier work.
Series [2] relates to depression. The following applies: in vivo; cited from earlier work.

Regarding `COc1ccc2[nH]cc(CCNC(C)=O)c2c1` [melatonin], the “effect on circadian rhythm” value in series [1] is listed as “phase advance circadian rhythm”. Further, the antidepressant efficacy entry in series [2] is reported as “not an effective antidepressant”.
